pIC50: −log10 of the molar value.

T1 sequence (O00763 144-2458): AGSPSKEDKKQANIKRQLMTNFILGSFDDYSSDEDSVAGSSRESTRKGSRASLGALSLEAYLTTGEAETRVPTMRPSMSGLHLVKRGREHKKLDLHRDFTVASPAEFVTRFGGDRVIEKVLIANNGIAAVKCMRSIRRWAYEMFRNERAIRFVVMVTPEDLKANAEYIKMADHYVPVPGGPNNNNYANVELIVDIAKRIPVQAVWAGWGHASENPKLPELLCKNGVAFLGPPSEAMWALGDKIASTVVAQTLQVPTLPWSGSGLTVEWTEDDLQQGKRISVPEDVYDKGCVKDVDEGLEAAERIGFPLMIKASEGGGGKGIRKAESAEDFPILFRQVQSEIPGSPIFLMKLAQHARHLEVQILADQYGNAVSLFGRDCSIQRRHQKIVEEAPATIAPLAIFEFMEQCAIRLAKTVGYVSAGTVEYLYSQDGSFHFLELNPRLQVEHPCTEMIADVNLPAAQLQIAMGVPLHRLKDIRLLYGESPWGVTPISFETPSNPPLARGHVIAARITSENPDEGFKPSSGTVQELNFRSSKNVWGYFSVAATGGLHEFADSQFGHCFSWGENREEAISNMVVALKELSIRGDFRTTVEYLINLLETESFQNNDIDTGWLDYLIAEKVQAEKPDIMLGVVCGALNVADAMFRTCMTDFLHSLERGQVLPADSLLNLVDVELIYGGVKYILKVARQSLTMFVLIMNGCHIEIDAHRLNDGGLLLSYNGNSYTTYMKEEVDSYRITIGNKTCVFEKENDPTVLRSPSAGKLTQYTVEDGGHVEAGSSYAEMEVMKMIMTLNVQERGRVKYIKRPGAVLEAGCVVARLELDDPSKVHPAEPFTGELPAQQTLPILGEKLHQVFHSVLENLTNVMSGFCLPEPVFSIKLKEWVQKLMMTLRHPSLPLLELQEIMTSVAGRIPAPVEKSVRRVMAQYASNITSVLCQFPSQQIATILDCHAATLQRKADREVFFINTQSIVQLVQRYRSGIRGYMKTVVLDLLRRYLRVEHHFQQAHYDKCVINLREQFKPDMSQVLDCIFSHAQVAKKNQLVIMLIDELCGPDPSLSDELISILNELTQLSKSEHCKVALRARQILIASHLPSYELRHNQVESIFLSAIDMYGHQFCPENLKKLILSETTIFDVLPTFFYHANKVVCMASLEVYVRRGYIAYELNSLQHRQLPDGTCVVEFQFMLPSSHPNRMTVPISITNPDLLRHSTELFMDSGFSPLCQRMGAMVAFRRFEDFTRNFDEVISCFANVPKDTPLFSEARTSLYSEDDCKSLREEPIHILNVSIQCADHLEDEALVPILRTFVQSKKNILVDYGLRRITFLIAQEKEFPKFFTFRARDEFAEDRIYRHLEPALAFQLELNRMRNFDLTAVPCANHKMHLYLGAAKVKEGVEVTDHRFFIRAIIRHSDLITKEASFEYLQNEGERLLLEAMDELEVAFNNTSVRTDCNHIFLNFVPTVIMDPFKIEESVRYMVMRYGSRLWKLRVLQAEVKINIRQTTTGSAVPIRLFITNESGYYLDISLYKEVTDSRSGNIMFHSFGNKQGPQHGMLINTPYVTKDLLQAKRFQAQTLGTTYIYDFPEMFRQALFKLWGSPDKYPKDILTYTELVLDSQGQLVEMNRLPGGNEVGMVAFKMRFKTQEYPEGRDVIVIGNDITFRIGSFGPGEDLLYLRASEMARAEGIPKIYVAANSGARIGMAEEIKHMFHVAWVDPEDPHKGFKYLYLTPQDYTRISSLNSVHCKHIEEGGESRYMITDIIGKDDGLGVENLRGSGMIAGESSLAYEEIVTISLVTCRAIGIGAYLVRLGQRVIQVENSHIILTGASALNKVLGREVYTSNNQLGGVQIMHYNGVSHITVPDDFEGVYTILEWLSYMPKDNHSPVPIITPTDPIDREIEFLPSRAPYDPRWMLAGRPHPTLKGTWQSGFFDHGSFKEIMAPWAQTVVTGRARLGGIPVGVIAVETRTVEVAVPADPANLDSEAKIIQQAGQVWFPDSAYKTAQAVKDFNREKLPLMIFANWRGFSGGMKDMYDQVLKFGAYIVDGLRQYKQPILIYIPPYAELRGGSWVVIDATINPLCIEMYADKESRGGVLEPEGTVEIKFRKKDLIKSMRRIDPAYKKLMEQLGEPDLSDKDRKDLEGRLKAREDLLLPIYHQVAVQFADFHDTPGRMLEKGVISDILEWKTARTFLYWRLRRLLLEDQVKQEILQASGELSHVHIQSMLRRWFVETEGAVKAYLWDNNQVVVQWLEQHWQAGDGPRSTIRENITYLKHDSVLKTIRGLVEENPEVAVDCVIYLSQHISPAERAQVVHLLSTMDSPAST

The experiment concerns the target T1, human acetyl-CoA carboxylase 2 (ACC2) (Homo sapiens, UniProt O00763).
T1 construct: The cDNA encoding amino acids 144 to 2458 of human acetyl-CoA carboxylase 2; made in house; host or cells: Sf9 insect cells (baculovirus, pFastBac1)
The experiment is described as follows: Acetyl-CoA carboxylase enzyme assay (malonyl-CoA formation by LC/MS/MS). Particulars: recombinant human ACC2 (aa 144-2458); read-out: IC50 ACC2. Format: biochemical. Put shortly: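 Malonyl-CoA formation was read by LC/MS/MS MRM against a [13C3]-malonyl-CoA internal standard, after acetic acid quench. The enzyme was baculovirus/Sf9-expressed human ACC2 residues 144–2458, given 15 minutes room-temperature compound preincubation in HEPES pH 7.5 buffer with MgCl2, citrate and DTT. Substrate solution held 50 μM acetyl-CoA, 120 μM ATP and 2 mM KHCO3.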
As a reminder, the pIC50 is the IC50 on a negative log10 scale, so that one unit is a factor of ten. For the compound `Cc1cc(CO)ccc1-c1cc2ccc(S(=O)(=O)N[C@H]3CC[C@H](C(=O)N4CCCCC4)CC3)cc2[nH]1` [Example 314, 2-(4-(hydroxymethyl)-2-methylphenyl)-N-((1r,4r)-4-(piperidine-1-carbonyl)cyclohexyl)-1H-indole-6-sulfonamide], the negative-log IC50 (pIC50) is 7.22. In the case of `Cc1ccccc1-c1cc2ccc(S(=O)(=O)N[C@H]3CC[C@H](C(=O)N4CCOC[C@@H]4C)CC3)cc2[nH]1` [Example 482, N-((1S,4r)-4-((S)-3-methylmorpholine-4-carbonyl)cyclohexyl)-2-o-tolyl-1H-indole-6-sulfonamide], the pIC50 was 7.05. Turning to `Cc1cnc2c(S(=O)(=O)N[C@H]3CC[C@H](C(=O)N[C@H](C)c4ccc(F)cc4)CC3)cccc2c1` [Example 165, (1r,4R)-N-((R)-1-(4-fluorophenyl)ethyl)-4-(3-methylquinoline-8-sulfonamido)cyclohexanecarboxamide], the pIC50 was 6.17. Take `Cn1c(-c2ccccc2)cc2ccc(S(=O)(=O)N[C@H]3CC[C@H](C(=O)N4CCC[C@@H]4CO)CC3)cc21` [Example 432, N-((1R,4r)-4-((R)-2-(hydroxymethyl)pyrrolidine-1-carbonyl)cyclohexyl)-1-methyl-2-phenyl-1H-indole-6-sulfonamide]: the pIC50 was 7.02. Turning to `CN1CCN(c2ccc(Nc3nc4cc(S(=O)(=O)N[C@H]5CC[C@H](c6nnc(C(C)(C)C)o6)CC5)ccc4[nH]3)cc2)CC1` [Example 9, N-((1r,4r)-4-(5-tert-butyl-1,3,4-oxadiazol-2-yl)cyclohexyl)-2-(4-(4-methylpiperazin-1-yl)phenylamino)-1H-benzo[d]imidazole-5-sulfonamide], the negative logarithm of the IC50 (pIC50) is 7.33. Next, `CC(C)c1nnc([C@H]2CC[C@H](NS(=O)(=O)c3ccc4[nH]c(Nc5ccc(N6CCN(C)CC6)cc5)nc4c3)CC2)o1` [Example 598, N-((1r,4r)-4-(5-isopropyl-1,3,4-oxadiazol-2-yl)cyclohexyl)-2-(4-(4-methylpiperazin-1-yl)phenylamino)-1H-benzo[d]imidazole-5-sulfonamide]: 7.06. As to `C[C@@H](NC(=O)[C@H]1CC[C@H](NS(=O)(=O)c2ccc3cc(CCO)[nH]c3c2)CC1)c1ccc(F)cc1` [Example 305, (1r,4R)-N-((R)-1-(4-fluorophenyl)ethyl)-4-(2-(2-hydroxyethyl)-1H-indole-6-sulfonamido)cyclohexanecarboxamide], the pIC50 was 7.22. On to `C[C@@H](NC(=O)[C@H]1CC[C@H](NS(=O)(=O)c2ccc3cc(-c4ccccc4CO)[nH]c3c2)CC1)c1ccc(F)cc1` [Example 299, (1r,4R)-N-((R)-1-(4-fluorophenyl)ethyl)-4-(2-(2-(hydroxymethyl)phenyl)-1H-indole-6-sulfonamido)cyclohexanecarboxamide], for which the pIC50 is 7.96.

On to `Cn1c(-c2ccccc2)cc2cc(S(=O)(=O)N[C@H]3CC[C@H](C(=O)N[C@H](CC(=O)O)c4ccccc4)CC3)ccc21` [Example 95, (R)-3-((1r,4R)-4-(1-methyl-2-phenyl-1H-indole-5-sulfonamido)cyclohexanecarboxamido)-3-phenylpropanoic acid], for which the pIC50 was 7.52.

Turning to `O=C([C@H]1CC[C@H](NS(=O)(=O)c2ccc3[nH]c(-c4ccccc4)nc3c2)CC1)N1CCC2CCCCC2C1` (stereo partly shown) [Example 624, N-((1r-4r)-4-(decahydroisoquinoline-2-carbonyl)cyclohexyl)-2-phenyl-1H-benzo[d]imidazole-5-sulfonamide], the pIC50 is 6.61. In the case of `COCC[C@@H](NC(=O)[C@H]1CC[C@H](NS(=O)(=O)c2ccc3c(ccn3C)c2)CC1)c1ccccc1` [Example 679, (1r,4R)-N-((R)-3-methoxy-1-phenylpropyl)-4-(1-methyl-1H-indole-5-sulfonamido)cyclohexanecarboxamide], the pIC50 is 6.96. For the compound `C[C@@H](NC(=O)[C@H]1CC[C@H](NS(=O)(=O)c2ccc3nc(-c4ccccc4)oc3c2)CC1)c1ccc(F)cc1` [Example 11, N—((R)-1-(4-fluorophenyl)ethyl)-4-(2-phenylbenzo[d]oxazole-6-sulfonamido)cyclohexanecarboxamide], the pIC50 was 7.32.

In the case of `C[C@@H](NC(=O)[C@H]1CC[C@H](NS(=O)(=O)c2ccc3[nH]c(-c4cccnc4)cc3c2)CC1)c1ccc(F)cc1` [Example 285, (1r,4R)-N-((R)-1-(4-fluorophenyl)ethyl)-4-(2-(pyridin-3-yl)-1H-indole-5-sulfonamido)cyclohexanecarboxamide], the pIC50 is 7.92.

Regarding `O=C([C@H]1CC[C@H](NS(=O)(=O)c2ccc3c(c2)NCCC3)CC1)N1CCOCC1c1ccccc1` (stereo partly shown) [Example 178, N-((1r,4r)-4-(3-phenylmorpholine-4-carbonyl)cyclohexyl)-1,2,3,4-tetrahydroquinoline-7-sulfonamide], the pIC50 is 7.26. Turning to `Cn1ccc2cc(S(=O)(=O)NC3CCC(C)(C(=O)N4CCOCC4)CC3)ccc21` (stereo not shown) [Example 385, 1-methyl-N-(4-methyl-4-(morpholine-4-carbonyl)cyclohexyl)-1H-indole-5-sulfonamide], the pIC50 was 6.04. For `Cn1c(C2CC2)cc2ccc(S(=O)(=O)N[C@H]3CC[C@H](C(=O)N4CCNC(C(F)(F)F)C4)CC3)cc21` (stereo partly shown) [Example 356, 2-cyclopropyl-1-methyl-N-((1r,4r)-4-(3-(trifluoromethyl)piperazine-1-carbonyl)cyclohexyl)-1H-indole-6-sulfonamide], the pIC50 is 6.25. For `C[C@H]1CCCCN1C(=O)[C@H]1CC[C@H](NS(=O)(=O)c2ccc3c(C#N)c(C4CC4)n(C)c3c2)CC1` [Example 382, 3-cyano-2-cyclopropyl-1-methyl-N-((1S,4r)-4-((S)-2-methylpiperidine-1-carbonyl)cyclohexyl)-1H-indole-6-sulfonamide], the pIC50 is 7.02. Turning to `CC(C)(C)c1nnc([C@H]2CC[C@H](NS(=O)(=O)c3ccc4[nH]c(-c5ccc(N6CCOCC6)cc5)nc4c3)CC2)o1` [Example 588, N-((1r,4r)-4-(5-tert-butyl-1,3,4-oxadiazol-2-yl)cyclohexyl)-2-(4-morpholinophenyl)-1H-benzo[d]imidazole-5-sulfonamide], the pIC50 was 6.57.

Turning to `CC(C)OC(=O)c1ccc(NS(=O)(=O)c2ccc3[nH]c(-c4ccc(CN5CCN(C)CC5)cc4)nc3c2)cc1` [Example 561, isopropyl 4-(2-(4-((4-methylpiperazin-1-yl)methyl)phenyl)-1H-benzo[d]imidazole-5-sulfonamido)benzoate], the pIC50 was 6.50.

Turning to `C[C@@H](NC(=O)[C@H]1CC[C@H](NS(=O)(=O)c2ccc3[nH]c([C@@H]4CCCN4)nc3c2)CC1)c1ccc(F)cc1` [Example 3, (1r,4R)—N—((R)-1-(4-fluorophenyl)ethyl)-4-(2-((S)-pyrrolidin-2-yl)-1H-benzo[d]imidazole-5-sulfonamido)cyclohexanecarboxamide], the pIC50 was 6.29.

Consider `CC(C)OC(=O)c1ccc(NS(=O)(=O)c2ccc3nc(-c4ccc(C(C)O)cc4)[nH]c3c2)cc1` (stereo not shown) [Example 517, isopropyl 4-(2-(4-(1-hydroxyethyl)phenyl)-1H-benzo[d]imidazole-6-sulfonamido)benzoate], for which the pIC50 is 6.61. Next, `Cc1nc2cc(S(=O)(=O)N[C@H]3CC[C@H](c4nnc(C(C)(C)C)o4)CC3)ccc2n1Cc1ccccc1` [Example 657, 1-benzyl-N-((1r,4r)-4-(5-tert-butyl-1,3,4-oxadiazol-2-yl)cyclohexyl)-2-methyl-1H-benzo[d]imidazole-5-sulfonamide]: under 4.46.

The values are drawn from patent US8697739B2, “Bicyclic acetyl-CoA carboxylase inhibitors and uses thereof” (Novartis AG, priority 2010, dated 2014).
